Measurements: US20050153932A1, “Controlled muscle relaxation” (priority 2003, published 2005)
Several values for one entry are separate records, joined by “and”; a condition that tells them apart may be missing. Equal values may be shown once. Read-outs that look alike come from different tables or passages of the source.

Columns and labels:
[1] = tested on: deep block induced by rocuronium; format: in vivo, human
Source text: A simple method of monitoring neuromuscular function is the train-of-four (TOF) technique using an acceleromyograph (TOF Watch®). Four electrical stimuli each 0.5 seconds apart (and for instance applied at 12-15 seconds intervals) are applied along the course of the ulnar nerve in the arm. Stimulation of the ulnar nerve causes contraction of the adductor pollicis muscle and movement of the thumb. Response can be noted visually or, more accurately, by placing a finger lightly on the surface of the hand over the muscle to feel the contraction. A baseline response check is done to ensure that there are four muscle twitches in response to the four stimuli. Normal baseline and full recovery is indicated by four twitches of equal strenght. As the number of acetylcholine receptors occupied by NMBAs increases, the number of twitches decreases, no twitches indicating total paralysis.
(§1) • T1: first twitch: amplitude of the first response to TOF stimulation, expressed as percentage of control T1 (%). • T4/T1 ratio: the ratio of T4 over T1 (within one TOF stimulus) expressed as decimals.
10 Volunteers, which were enrolled in a phase 1 trial with the objective to investigate the safety, pharmacokinetics and efficacy of Org 25969, received general anesthesia using i.v. administration of remifentanil followed by propofol (Target controlled Infusion—Diprifusor®) for induction and maintenance. After induction of anesthesia and set-up of the TOF-Watch®SX subjects received a i.v. bolus dose of 0.6 mg·kg^−1 rocuronium bromide (Esmeron®) given by hand over 5 seconds. Between the administration of rocuronium and the administration of Org 25969, a laryngeal mask was applied or tracheal intubation was performed to ventilate the subjects. At 3 minutes after rocuronium bromide administration (i.e. deep block) either placebo (commercially physiological salt solution, 0.9% sodium chloride) or Org 25969 (25 mg/ml) were given as a bolus dose into a fast running infusion in the forearm. Six dose levels of Org 25969 were given to these 10 volunteers. Neuromuscular block was measured using the TOF-Watch-SX® acceleromyograph for at least 90 minutes after administration of Org 25969 or placebo.

[2] = Org 25969 with rocuronium; neutral pH and 25° C.; cited from earlier work
[3] = tested on: M. adductor pollicis contractions; assay: Rocuronium-induced block of M. adductor pollicis contractions (TOF stimulation) and effect of Org 25969 in anaesthetised Rhesus monkeys; format: in vivo, Rhesus monkey
Method: as §1
Female Rhesus monkeys were starved overnight and sedated with 10 mg·kg^−1 ketamine i.m., followed by i.v. injection of 25 mg·kg^−1 pentobarbitone sodium and subsequent infusion of 5-10 mg·kg^−1hr^−1. The animals were intubated and ventilated with a mixture of oxygen and nitrous oxide (2:3), using a ventilator. The expired CO2 level was measured using a capnograph. The tidal volume was adjusted to obtain a CO2 level of approximately 4.5%. Oxygen saturation was measured via a probe on the earlobe using a pulse oxymeter. Blood pressure was measured non-invasively with a cuff placed on the tail. The ECG was recorded and heart rate was measured. Rectal temperature was measured and body temperature was kept at 37-38° C. using a heating blanket. The right hand and right arm of the animal were fixed to a frame using surgical tape. The thumb was connected to a force transducer. A pre-load of 200-500 mN was applied. Two needle electrode were placed near the N. ulnaris and the nerve was stimulated with train-of-four pulses (pulse duration: 2 ms, train-frequency: 0.07 Hz). At the end of the experiment, the animals were allowed to recover from anesthesia. Appropriate recovery care was given to all animals. Two groups of monkeys were used to assess the reversal effects of Org 25969 against the neuromuscular blocking agents rocuronium (Esmeron®/Zemuron®) and vecuronium (Norcuron®). In the first group, animals initially received an intravenous bolus injection of a 1×ED90 dose of rocuronium bromide to induce neuromuscular block, followed by spontaneous recovery of the twitches. After complete recovery of the twitches, each group received a second and larger 5×ED90 dose of rocuronium followed by spontaneous recovery in one subgroup, whereas the other subgroup received an intravenous bolus dose of 1150 nmol·kg^−1 Org 25969 as soon as all twitches had disappeared. In the vecuronium groups of animals, the same protocol was used, but rocuronium was replaced by vecuronium. Rocuronium bromide and vecuronium bromide were dissolved in a citric acid/phosphate/mannitol buffer (pH 4.0). Org 25969 was dissolved in saline.

[4] = Org 25969 with vecuronium; cited from earlier work
[5] = tested on: M. gastrocnemius contractions; format: in vivo, guinea pig; details: for 1× ED90 dose: rocuronium i.v. bolus, established in each animal
Method: Male healthy mature guinea pigs were anesthetised with 30 mg·kg^−1 pentobarbitone and 900 mg·kg^−1 urethane i.p. The guinea pigs were artificially ventilated with room air (4.5-5.5 ml; 50-60 strokes/min). Catheters were placed in both jugular veins and a third catheter was placed in the carotid artery for continuous monitoring of arterial blood pressure and the taking of blood samples for blood gas analysis.
Heart rate was derived from the blood pressure signal.
Body temperature was maintained at 37-38° C. using an electrical heating pad.
The gastrocnemius muscle was dissected free from surrounding muscles and set up for recording twitch tension using a force transducer. A resting tension of 250-300 mN was applied to the muscle. A stimulation electrode was placed around the sciatic nerve, which was crushed centrally to the electrode to prevent reflex responses. The gastrocnemius muscle was stimulated indirectly via the sciatic nerve with rectangular pulses of 0.5 ms duration at 10 s (0.1 Hz) intervals at a supra maximal voltage using a Grass S88 Stimulator.
Animals were allowed to stabilise for […] before the start of the experiment. Firstly, the 1×ED90 blocking dose of rocuronium was established in each animal followed by complete spontaneous recovery of muscle contractions. After at least 30 minutes, all animals received a 10×ED90 blocking dose of rocuronium by intravenous bolus injection. One minute after bolus injection of rocuronium, the animals received either 2300 nmol·kg^−1 Org 25969 in saline or an equivalent volume of saline. Time to 25%, 50%, 75% and 90% recovery of twitch height was measured from the moment of injection of Org 25969 or saline, respectively.
Rocuronium bromide was dissolved in a pH 4.0 citric acid/phosphate/mannitol buffer. Org 25969 was dissolved in saline.

[6] = 5× ED90 rocuronium + 1150 nmol · kg^−1 Org 25969 i.v.
[7] = 5× ED90 rocuronium in the subgroup given 1150 nmol · kg^−1 Org 25969 once all twitches had disappeared
[8] = 10× ED90 rocuronium, 2300 nmol · kg^−1 Org 25969 i.v. one minute later (group 2), time from injection of Org 25969
[9] = 1× ED90 rocuronium, spontaneous recovery
[10] = 5× ED90 rocuronium, spontaneous recovery
[11] = 5× ED90 rocuronium, spontaneous recovery subgroup
[12] = 1× ED90 rocuronium i.v., spontaneous recovery, group 1
[13] = 1× ED90 rocuronium i.v., spontaneous recovery, group 2
[14] = 10× ED90 rocuronium i.v. bolus, group 1
[15] = 10× ED90 rocuronium i.v. bolus, group 2
[16] = 10× ED90 rocuronium, saline one minute later (group 1), time from injection of saline

## O=C(O)CCSC[C@H]1O[C@@H]2O[C@H]3[C@H](O)[C@@H](O)[C@@H](O[C@H]4[C@H](O)[C@@H](O)[C@@H](O[C@H]5[C@H](O)[C@@H](O)[C@@H](O[C@H]6[C@H](O)[C@@H](O)[C@@H](O[C@H]7[C@H](O)[C@@H](O)[C@@H](O[C@H]8[C@H](O)[C@@H](O)[C@@H](O[C@H]9[C@H](O)[C@@H](O)[C@@H](O[C@H]1[C@H](O)[C@H]2O)O[C@@H]9CSCCC(=O)O)O[C@@H]8CSCCC(=O)O)O[C@@H]7CSCCC(=O)O)O[C@@H]6CSCCC(=O)O)O[C@@H]5CSCCC(=O)O)O[C@@H]4CSCCC(=O)O)O[C@@H]3CSCCC(=O)O [Org 25969, 6-per-deoxy-6-per-(2-carboxyethyl)thio-γ-cyclodextrin]
[1]; Org 25969 0.1 mg · kg^−1 i.v. bolus 3 minutes after 0.6 mg·kg^−1 rocuronium bromide, individual volunteer
  Time to TOF ratio 0.9: 43 min
[1]; Org 25969 0.5 mg · kg^−1 i.v. bolus 3 minutes after 0.6 mg·kg^−1 rocuronium bromide, individual volunteer
  Time to TOF ratio 0.9: 71 min
[1]; Org 25969 1.0 mg · kg^−1 i.v. bolus 3 minutes after 0.6 mg·kg^−1 rocuronium bromide, individual volunteers
  Time to TOF ratio 0.9: 23 min and 31 min
[1]; Org 25969 2.0 mg · kg^−1 i.v. bolus 3 minutes after 0.6 mg·kg^−1 rocuronium bromide, individual volunteers
  Time to TOF ratio 0.9: 13 min and 17 min
[1]; Org 25969 4.0 mg · kg^−1 i.v. bolus 3 minutes after 0.6 mg·kg^−1 rocuronium bromide, individual volunteers
  Time to TOF ratio 0.9: 2.5 min and 3.2 min
[1]; Org 25969 8.0 mg · kg^−1 i.v. bolus 3 minutes after 0.6 mg·kg^−1 rocuronium bromide, individual volunteers
  Time to TOF ratio 0.9: ≤ 2 min and 1.0 min and 1.2 min
[1]; human, in vivo
  re-curarisation: no signs of re-curarisation
[2]
  association constant Ka: about 15.10^6 M^−1
[3]; 1150 nmol·kg^−1 Org 25969, 5×ED90 of either blocker
  effectiveness against rocuronium compared with vecuronium (in words): more effective against a 5×ED90 dose of rocuronium
[3]; 1150 nmol·kg^−1 Org 25969 i.v. after 5×ED90 rocuronium
  reversal of rocuronium-induced neuromuscular block (in words): rapid reversal
[3]; [6]
  0.50-0.90 TOF ratio interval: 4.0 ± 0.9 min
  25-75% recovery index: 3.1 ± 0.8 min
  time to 25% recovery of T1: 3.8 ± 0.7 min
  time to 90% recovery of T1: 9.5 ± 1.9 min
  time to TOF ratio 0.90: 7.9 ± 1.8 min
[3]; [7]
  block: 100.0 ± 0.0%
  onset time: 0.5 ± 0.1 min
[4]
  affinity (association constant): about 9.10^6 M^−1
[5]; 10× ED90 rocuronium, 2300 nmol · kg^−1 Org 25969 i.v. one minute later (group 2)
  25-75% recovery index: 1.3 min and 1.3 ± 0.4 min
[5]; [8]
  time to 25% recovery: 3.7 ± 0.4 min
  time to 90% recovery: 8.5 min and 8.5 ± 2.2 min

## C=CC[N+]1([C@H]2C[C@H]3[C@@H]4CC[C@H]5C[C@H](O)[C@@H](N6CCOCC6)C[C@]5(C)[C@H]4CC[C@]3(C)[C@H]2OC(C)=O)CCCC1 [rocuronium, rocuronium bromide]
[1]; 0.6 mg·kg^−1 rocuronium bromide i.v., placebo at 3 minutes, time from placebo, n = 10
  Time to TOF ratio 0.9: 35 to 69 min
[3]; 1× ED90 rocuronium
  onset time: 1.2 ± 0.0 min
[3]; [9]
  0.50-0.90 TOF ratio interval: 2.6 ± 0.2 min
  25-75% recovery index: 3.3 ± 0.4 min
  time to 25% recovery of T1: 4.5 ± 0.6 min
  time to 90% recovery of T1: 9.6 ± 0.9 min
  time to TOF ratio 0.90: 8.4 ± 0.9 min
[3]; 1× ED90 rocuronium, Mean ± SEM, n = 4
  block: 93.3 ± 1.9%
[3]; [10]
  0.50-0.90 TOF ratio interval: 6.9 ± 0.8 min
  25-75% recovery index: 6.0 ± 0.6 min
  time to 25% recovery of T1: 18.5 ± 2.1 min
  time to 90% recovery of T1: 27.7 ± 3.2 min
  time to TOF ratio 0.90: 28.2 ± 3.4 min
[3]; [11]
  block: 100.0 ± 0.0%
  onset time: 0.7 ± 0.2 min
[5]; [12]
  25-75% recovery index: 3.5 ± 0.4 min
  max recovery: 101.1 ± 1.3%
  max recovery after (time): 15.1 ± 2.1 min
  time to 25% recovery: 5.1 ± 0.7 min
  time to 90% recovery: 10.7 ± 1.5 min
[5]; [13]
  25-75% recovery index: 2.3 ± .5 min
  max recovery: 101.4 ± 2.8%
  max recovery after (time): 12.5 ± 1.7 min
  time to 25% recovery: 3.8 ± 0.5 min
  time to 90% recovery: 8.7 ± 1.4 min
[5]; 1× ED90 rocuronium i.v., group 1
  onset time: 2.6 ± 0.3 min
[5]; 1× ED90 rocuronium i.v., group 1, Mean ± SEM, n = 6
  max block: 89.7 ± 2.4%
[5]; 1× ED90 rocuronium i.v., group 2
  onset time: 2.1 ± 0.3 min
[5]; 1× ED90 rocuronium i.v., group 2, Mean ± SEM, n = 6
  max block: 91.0 ± 2.5%
[5]; [14]
  max block: 100.0 ± 0.0%
  onset time: 2.0 ± 0.8 min
[5]; [15]
  max block: 100.0 ± 0.0%
  onset time: 1.7 ± 0.5 min
[5]; 10× ED90 rocuronium, saline one minute later (group 1)
  25-75% recovery index: 15.9 min and 15.9 ± 4.0 min
[5]; [16]
  time to 25% recovery: 47.5 ± 7.0 min
  time to 90% recovery: 78.3 min and 78.3 ± 15.2 min
[5]; group 1, Mean ± SEM, n = 6
  1× ED90 dose: 178 ± 22 nmol/kg
[5]; group 2, Mean ± SEM, n = 6
  1× ED90 dose: 169 ± 15 nmol/kg
